{
  "source": "patent US5462948A",
  "about": "“Treatment of addiction to drugs and substances of abuse” (H. Lundbeck A/S, priority 1991, dated 1995)",
  "key": {"[1]": {"experiment": "Catalepsy test in rats (s.c., vertical wire mesh)", "conditions": "rat, maximum catalepsy within the first 6 hours", "description": "Test compound is given s.c. in different doses. The rat (170-240 g) is placed on a vertical wire mesh (mesh diameter 12 mm). The rat is considered cataleptic if it remains immobile for more than 15 sec. The maximum number of rats showing catalepsy within the first 6 hours is recorded for each dose group. The results are recorded in fractions and an ED50 value is calculated by means of log-probit analysis. The results are shown in Table 1 (cf. Our Internat. Patent Application Publ. No. WO 92/00070)."}, "[2]": {"experiment": "Inhibition of diazepam withdrawal symptoms in mice (black/white test box)", "format": "in vivo, mice (male BKW)", "conditions": "0.1 mg/kg i.p.; FIG. 1", "description": "(§1) The tests are tests for the effect of a substance on the abstinence symptoms induced by withdrawal of a drug of a substance of abuse in mice measured as the effect on some specific behavioral changes following to withdrawal of the drug or substance of abuse.\n(§2) The test was conducted using an open-top experimental box (45*27*27 cm) two fifths of which was partitioned from the rest, painted black and illuminated with a dim red light (1×60 W, zero Lux). The remainder of the box was painted white and brightly illuminated (60 W, 400 Lux) with a white light source. The light sources were located 17 cm above the box and the base of the box was lined into 9 cm squares. Access between the two compartments was by means of a 7.5×7.5 cm opening located in floor level at the centre of the partition.\n(§3) The mice were male BKW mice having weight of 25-30 g, housed in groups of 10 and given free acces to drink and food and kept on a dark/light cycle of 12 hours.\nDiazepam (10 mg/kg) was given i.p. twice a day for 7 days and then withdrawn. […]\nThe test was carried out by taking the mice to a dimly illuminated room and then after 1 hour adaption to the new environment placing them in the centre of the white section of the test box. […] The following behavioural changes were measured: […]"}, "[3]": {"experiment": "Inhibition of nicotine withdrawal symptoms in mice (black/white test box)", "format": "in vivo, mice (male BKW)", "conditions": "0.1 mg/kg i.p.; FIG. 2", "description": "as §1, §2, §3\nThe test was carried out by taking the mice to a dimly illuminated room and then after 1 hour adaption to the new environment placing them in the centre of the white section of the test box. Behavioural changes were assed via remote video recording. The following behavioural changes were measured:\na) The time spent in the white and black section;\nb) the number of explorative rearings in both the white and black section; […]"}},
  "data": [
    {"smiles": "O=C1NCCN1CCN1CC=C(c2cn(-c3ccc(F)cc3)c3ccc(C(F)(F)F)cc23)CC1", "note": "[Comp. A, 1-(4-Fluorophenyl)-3-[1-[2-(2-imidazolidinon-1-yl)ethyl]-1,2,3,6-tetrahydropyridin-4-yl]-5-trifluoromethyl-1H-indole, reference compound]", "values": [
      {"measurement": "Cataleptic activity ED50 (s.c.)", "setting": "[1]", "result": 0.49, "unit": "µmol/kg"}
    ]},
    {"smiles": "O=C1NCCN1CCN1CC=C(c2cn(-c3ccc(F)cc3)c3ccc(Cl)cc23)CC1", "note": "[Comp. B, 5-Chloro-1-(4-fluorophenyl)-3-[1-[2-(2-imidazolidinon-1-yl)ethyl]-1,2,3,6-tetrahydro-4-pyridyl]-1H-indole, reference compound]", "values": [
      {"measurement": "Cataleptic activity ED50 (s.c.)", "setting": "[1]", "result": 2.2, "unit": "µmol/kg"}
    ]},
    {"smiles": "CN1CCN(CCN2CCC(c3cn(-c4ccc(F)cc4)c4ccc(Cl)cc34)CC2)C1=O", "note": "[Comp. No 3, 5-chloro-1-(4-fluorophenyl)-3-[1-[2-(3-methyl-2-imidazolidinon-1-yl)ethyl]-4-piperidyl]-1H-indole]", "values": [
      {"measurement": "Cataleptic activity ED50 (s.c.)", "setting": "[1]", "result": 31, "unit": "µmol/kg"}
    ]},
    {"smiles": "O=C1CCCN1CCN1CCC(c2cn(-c3ccc(F)cc3)c3ccc(Cl)cc23)CC1", "note": "[Comp. No 4, 5-chloro-1-(4-fluorophenyl)-3-[1-[2-(2-pyrrolidinon-1-yl)ethyl]-4-piperidyl]-1H-indole]", "values": [
      {"measurement": "Cataleptic activity ED50 (s.c.)", "setting": "[1]", "result": 23, "unit": "µmol/kg"}
    ]},
    {"smiles": "O=C1NCCN1CCN1CCC(c2cn(-c3ccc(F)cc3)c3ccc(Cl)cc23)CC1", "note": "[Sertindole, 5-chloro-1-(4-fluorophenyl)-3-[1-[2-(2-imidazolidinon-1-yl)ethyl]-4-piperidyl]-1H-indole]", "values": [
      {"measurement": "Inhibiting effect on the withdrawal behavioural changes, diazepam", "setting": "[2]", "result": "statistically significant inhibiting effect"},
      {"measurement": "Relieving effect on the symptoms following withdrawal of diazepam", "setting": "[2]", "result": "marked relieving effect"},
      {"measurement": "Inhibiting effect on the withdrawal behavioural changes, nicotine", "setting": "[3]", "result": "statistically significant inhibiting effect"},
      {"measurement": "Relieving effect on the symptoms following withdrawal of nicotine", "setting": "[3]", "result": "marked relieving effect"}
    ]}
  ]
}
